Data set [1] deals with DENV2. Type of data set: cell-based.
A short description of data set [2]: in vitro. Particulars: African green monkey.
In data set [3] the test system is Vero cells.
Data set [4] concerns SARS-CoV-2 (USA-WA1/2020). The data set can be described thus: microbe, parasite or virus in culture. The note with it: for EC50: Severe acute respiratory syndrome coronavirus 2, Vero, 24 h, read-out: SARS-CoV-2 EC50. The format is cell-based.
The test system of data set [5] is Huh7 cells. The note with it: human.
Data set [6] in a line: in vitro. Particulars: human.
A short description of data set [7]: in vitro. Particulars: human, Huh7 cell viability (%).
Data set [8] concerns VEEV (TC-83). The format is cell-based.
Data set [9] has as its system ErbB4. Particulars: cited from earlier work.
Data set [10] deals with ErbB1. Particulars: cited from earlier work.
Data set [11] has as its system MAP2K5. Particulars: cited from earlier work.
Data set [12] concerns JAK. Particulars: cited from earlier work.
In data set [13] the test system is BTK. The note with it: cited from earlier work.
For data set [14], the system named is SARS-CoV-2 (USA-WA1/2020). The data set can be described thus: microbe, parasite or virus in culture. The format is cell-based. The note with it: Severe acute respiratory syndrome coronavirus 2, Calu-3, read-out: EC50, SARS-CoV-2 infection.
Data set [15] has as its system ErbB3. Particulars: cited from earlier work.
Data set [16] relates to BLK. The note with it: cited from earlier work.
The subject of data set [17] is ErbB2. Particulars: cited from earlier work.
For data set [18], the system named is ErbB1 (EGFR). The note with it: read-out: KD of binding or IC50 (nM), ErbB1; cited from earlier work.
For data set [19], the system named is VEEV (TC-83). The data set can be described thus: microbe, parasite or virus in culture. The format is cell-based. The note with it: Venezuelan equine encephalitis virus, U-87 MG, read-out: EC50, VEEV (TC-83) infection.
Data set [20] is described as follows: in vitro. Particulars: human. The source holds these as a separate data set.
Data set [21] concerns SRMS. The note with it: cited from earlier work.
Data set [22] concerns U-87 MG cells. Particulars: human.
In data set [23] the target is T1, ErbB4 (Homo sapiens, UniProt Q15303). Briefly: biochemical. Particulars: read-out: ErbB4 activity (%).
T1 sequence (Q15303 26-1308): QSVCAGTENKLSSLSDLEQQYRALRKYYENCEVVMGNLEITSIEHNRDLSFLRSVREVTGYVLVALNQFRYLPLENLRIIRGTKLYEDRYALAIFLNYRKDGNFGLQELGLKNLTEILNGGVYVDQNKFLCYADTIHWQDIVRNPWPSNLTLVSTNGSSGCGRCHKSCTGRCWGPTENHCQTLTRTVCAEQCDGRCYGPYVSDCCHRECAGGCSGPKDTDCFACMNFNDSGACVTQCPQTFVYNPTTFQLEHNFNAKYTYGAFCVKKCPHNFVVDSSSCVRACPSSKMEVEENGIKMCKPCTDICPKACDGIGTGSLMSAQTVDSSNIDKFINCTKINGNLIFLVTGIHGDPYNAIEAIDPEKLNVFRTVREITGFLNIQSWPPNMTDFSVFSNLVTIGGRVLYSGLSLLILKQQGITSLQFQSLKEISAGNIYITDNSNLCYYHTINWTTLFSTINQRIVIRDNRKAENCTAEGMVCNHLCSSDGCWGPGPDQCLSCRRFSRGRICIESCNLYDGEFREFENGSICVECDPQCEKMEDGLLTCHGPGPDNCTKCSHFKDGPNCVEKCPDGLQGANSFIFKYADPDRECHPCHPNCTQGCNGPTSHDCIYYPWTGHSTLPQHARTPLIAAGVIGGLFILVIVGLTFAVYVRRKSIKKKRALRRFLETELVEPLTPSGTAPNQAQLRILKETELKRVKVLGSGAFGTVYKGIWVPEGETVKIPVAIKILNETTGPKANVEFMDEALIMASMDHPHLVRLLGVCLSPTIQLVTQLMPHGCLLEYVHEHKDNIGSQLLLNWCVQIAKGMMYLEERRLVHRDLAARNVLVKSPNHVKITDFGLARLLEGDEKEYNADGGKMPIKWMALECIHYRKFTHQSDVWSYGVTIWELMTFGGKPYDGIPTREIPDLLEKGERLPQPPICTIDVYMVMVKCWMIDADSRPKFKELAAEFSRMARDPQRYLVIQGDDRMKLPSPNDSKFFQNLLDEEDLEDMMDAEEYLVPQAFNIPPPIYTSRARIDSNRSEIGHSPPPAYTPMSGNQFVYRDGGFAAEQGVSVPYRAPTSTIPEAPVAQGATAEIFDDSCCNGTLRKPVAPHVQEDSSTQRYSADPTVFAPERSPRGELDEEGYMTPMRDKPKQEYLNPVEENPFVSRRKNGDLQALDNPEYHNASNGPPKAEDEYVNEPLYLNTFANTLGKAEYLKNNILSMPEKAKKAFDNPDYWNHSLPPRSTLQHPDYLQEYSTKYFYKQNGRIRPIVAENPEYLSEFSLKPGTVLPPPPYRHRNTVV
Data set [24] deals with T1, ErbB4. Particulars: read-out: KD of binding or IC50 (nM), ErbB4; cited from earlier work.

Several values for one entry are separate records, joined by “and”; a condition that tells them apart may be missing. Equal entries are not always repeated. Where two headings read alike, the source gives them in different places.

In general, viability refers to a read-out of living cells in per cent, often relative to untreated cells. For orientation: EC50 means the concentration needed to bring the measured effect to its halfway point. `CC(=O)O[C@@H]1C[C@H]2C(C)(C)C(=O)C=C[C@]2(C)[C@H]2CC[C@@]3(C)[C@H](c4ccoc4)OC(=O)[C@H]4O[C@]43[C@@]21C` [Gedunin]: the “replication of DENV2” value in [1] was “dose-dependently inhibited replication”. In addition, in data set [2], the CC50 is > 20 µM. The viability at 0.625 µM in data set [2] (Cell viability (%), 0.625 μM) turned out to be 107%. For the same compound, the viability at 1.25 µM in [2] (Cell viability (%), 1.25 μM) came to 105%. Moreover, in data set [2] (Cell viability (%)), the viability at 5 µM came out at 82.9%. Also, in data set [2] (Cell viability (%)), the viability at 20 µM amounted to 86.5%. The “Cell viability (%)” value was 106.58% and 104.74% in [3] (0.625 μM); 98.66% in data set [3] (1.25 μM); 83.37% and 75.82% in data set [3] (5 μM); 88.12% and 85.24% in data set [3] (20 μM). Moreover, the “SARS-CoV-2 infection (%)” value in [4] (0.625 μM) is 97.75% and 70.79% and 84.27%; in data set [4] (1.25 μM), 57.30% and 67.42% and 50.56%; in data set [4] (5 μM), 0.67% and 1.04% and 1.31%; in data set [4] (20 μM) it was 0.00337%. Besides, in data set [4], the EC50 came out at 1.4 µM. Moreover, the “Huh7 cell viability (%)” value in data set [5] (0.37 µM) worked out at 96.29%. The viability at 0.37 µM was 81.9% in data set [6] (U-87 MG cell viability (%)) and 97.4% in data set [7]. Moreover, the viability at 3.33 µM in data set [6] (U-87 MG cell viability (%)) was 79.5%. For the same compound, the results for the viability at 10 µM in data set [6] (U-87 MG cell viability (%)) and in [7] were 75.7% and 85%, respectively. In addition, the viability at […] in [6] (U-87 MG cell viability (%)) is 79.1% and 86.8%. In addition, the viability at 0.123 µM in [7] came out at 97.1%. The viability at 1.111 µM in data set [7] is 96.9%. Also, the viability at 3.333 µM in data set [7] stood at 94.3%. Further, the “replication of TC-83” value in [8] is recorded as “dose-dependently inhibited replication”.
By IC50 is commonly meant the concentration needed to halve the response being measured. For the compound `C=CC(=O)N1CCC[C@@H](n2nc(-c3ccc(Oc4ccccc4)cc3)c3c(N)ncnc32)C1` [Ibrutinib], the “% of control, ErbB4” value in data set [9] is 1.0 nM 0%. For the same compound, the “% of control, ErbB1” value in [10] is listed as 1.8 nM 1.8%. In [11], the “Other targets: MAP2K5 (% of control)” value is given as “JAK (0%), BTK (0%), SRMS (0%), BLK (0.1%), ErbB3 (0.1%), MAP2K5 (0.2%)”. For the same compound, the “Other targets: JAK (% of control)” value in [12] is on record as “JAK (0%), BTK (0%), SRMS (0%), BLK (0.1%), ErbB3 (0.1%), MAP2K5 (0.2%)”. In data set [13], the “Other targets: BTK (% of control)” value is “JAK (0%), BTK (0%), SRMS (0%), BLK (0.1%), ErbB3 (0.1%), MAP2K5 (0.2%)”. The EC50 in data set [14] stood at 0.8 µM; in [19], 0.5 µM. The “Other targets: ErbB3 (% of control)” value in [15] is reported as “JAK (0%), BTK (0%), SRMS (0%), BLK (0.1%), ErbB3 (0.1%), MAP2K5 (0.2%)”. In addition, the CC50 in data set [6] and in data set [20] was > 20 µM throughout. The “Other targets: BLK (% of control)” value in data set [16] is recorded as “JAK (0%), BTK (0%), SRMS (0%), BLK (0.1%), ErbB3 (0.1%), MAP2K5 (0.2%)”. Also, in data set [17], the “% of control, ErbB2” value is given as 12.1 nM 0%. Further, in data set [18], the IC50 is 1.8 nM. In [21], the “Other targets: SRMS (% of control)” value was “JAK (0%), BTK (0%), SRMS (0%), BLK (0.1%), ErbB3 (0.1%), MAP2K5 (0.2%)”.
As to `CS(=O)(=O)CCNCc1ccc(-c2ccc3ncnc(Nc4ccc(OCc5cccc(F)c5)c(Cl)c4)c3c2)o1` [Lapati-nib], the viability at 20 µM in [2] (Cell viability (%)) was 67%. Besides, the “SARS-CoV-2 infection (%)” value in data set [4] (0.25 μM) was 46.09% and 52.84% and 47.65%; in data set [4] (0.74 μM), 18.11% and 21.05% and 22.00% and 22.88% and 28.58%; in data set [4] (2.22 μM) it was 20.01% and 16.81% and 28.24% and 14.29% and 20.00%. The “U-87 MG cell viability (%)” value in data set [22] (0.37 µM) is listed as 129.28%.
For the compound `CNC(=O)CN1CCC(Oc2cc3c(Nc4cccc(Cl)c4F)ncnc3cc2OC)CC1` [Sapitinib], in data set [14], the EC50 was found to be 1.8 µM. Further, in [23], the activity at 0.00305 µM was 37.7%, the activity at 0.0274 µM was 10.2%, the activity at 0.08 µM came to 5.52% and the activity at 0.25 µM came to 2.84%. In data set [23], the activity at 0.74 µM was found to be 1.25%, the activity at 2.22 µM was 2.36%, the activity at 6.67 µM amounted to 1.4% and the activity at 20 µM was determined as 1.27%. In data set [23], the activity at 60 µM turned out to be 0%; the activity at […] is 18.7% and 54.8%. Besides, the CC50 in data set [6] was > 20 µM. Moreover, in [24], the 50% inhibitory concentration (IC50) was 1.4 nM. The IC50 in data set [18] was 12 nM. Further, the EC50 in data set [19] amounted to 2.6 µM. For the same compound, the CC50 in data set [20] is > 20 µM. The viability in [20] (Calu-3 viability (%)) stood at 82.2%.
Consider `CCN(CC)CCNC(=O)c1c(C)[nH]c(/C=C2\C(=O)Nc3ccc(F)cc32)c1C` [Sunitinib], for which the CC50 in data set [2] is 12.2 µM. Besides, the viability at 2.5 µM in data set [2] (Cell viability (%), 2.5 μM) came to 68.8%. In addition, the viability at 5 µM in [2] (Cell viability (%)) worked out at 66.1%. Besides, the “SARS-CoV-2 infection (%)” value in data set [4] (0.5 μM) was 94.03% and 125.37% and 116.42%. In [4] (1 μM), the “SARS-CoV-2 infection (%)” value is 116.42% and 85.07% and 94.03%. The “SARS-CoV-2 infection (%)” value in data set [4] (5 μM) is 16.57% and 14.33% and 15.67%. Also, the EC50 in data set [4] stood at 2.4 µM. Moreover, the “Huh7 cell viability (%)” value in [5] (1.25 µM) was determined as 90.21%. For the same compound, the “Huh7 cell viability (%)” value in data set [5] (2.5 µM) was 75.37%. Further, in [6] (U-87 MG cell viability (%)), the viability at 0.25 µM came out at 118%, the viability at 0.74 µM amounted to 110%, the viability at 2.5 µM stood at 106% and the viability at 20 µM was 44.6%. Moreover, in data set [7], the viability at 0.16 µM was 102%, the viability at 0.63 µM is 99.8%, the viability at 1.25 µM was 89.5% and the viability at 10 µM is 59%. Besides, the “U-87 MG cell viability (%)” value in data set [22] (5 µM) turned out to be 106.81%.

(Values after PMC10541190 (The Journal of Clinical Investigation, 2023).)
